Measurements from article PMC5607274, “An iterative compound screening contest method for identifying target protein inhibitors using the tyrosine-protein kinase Yes” (Scientific Reports, 2017).

Target: T1, human recombinant Yes [a.a. 2–543 (end)] (Homo sapiens, UniProt P07947)
T1 construct: human recombinant Yes [a.a; 2–543 (end)]; purchased BPS Bioscience 40488
Assay: ADP-Glo kinase assay, inhibition rates of Yes phosphorylation activity (first and second screening)
Type: biochemical
Conditions: first screening; mean of n = 4 wells; 10 μmol L−1 compound
Experimental: All inhibitory assays of the phosphorylation activity of Yes were performed in accordance with the Promega Technical Manual for the ADP-Glo™ Kinase Assay (Fitchburg, WI, USA. Catalog number: V9102). The human recombinant Yes [a.a. 2–543 (end)] was purchased from BPS Bioscience (catalog number: 40488). The details of the assay protocol and reagent information are given elsewhere.
The screening was conducted in three steps consisting of the first screening, the second screening, and the IC50 determination, as can be illustrated in Fig. 1b. First, we determined the inhibition rates of the 1,991 compounds. Each compound was placed in 4 wells of a 384-well plate. In total, 80 compounds were assayed on one plate and the other wells were used for positive and negative controls. The compounds were randomly placed on plates so that compounds proposed by one group were not placed on a plate together. A mean of four inhibition rates for each compound was compared to criteria for the first screening. […] Second, the inhibition rates of the screened compounds were determined on one plate using the same procedure of the first screening, where compounds were dissolved from fresh powder. […] Screened compounds were then evaluated for their IC50 values.

T1 sequence (P07947 2-543): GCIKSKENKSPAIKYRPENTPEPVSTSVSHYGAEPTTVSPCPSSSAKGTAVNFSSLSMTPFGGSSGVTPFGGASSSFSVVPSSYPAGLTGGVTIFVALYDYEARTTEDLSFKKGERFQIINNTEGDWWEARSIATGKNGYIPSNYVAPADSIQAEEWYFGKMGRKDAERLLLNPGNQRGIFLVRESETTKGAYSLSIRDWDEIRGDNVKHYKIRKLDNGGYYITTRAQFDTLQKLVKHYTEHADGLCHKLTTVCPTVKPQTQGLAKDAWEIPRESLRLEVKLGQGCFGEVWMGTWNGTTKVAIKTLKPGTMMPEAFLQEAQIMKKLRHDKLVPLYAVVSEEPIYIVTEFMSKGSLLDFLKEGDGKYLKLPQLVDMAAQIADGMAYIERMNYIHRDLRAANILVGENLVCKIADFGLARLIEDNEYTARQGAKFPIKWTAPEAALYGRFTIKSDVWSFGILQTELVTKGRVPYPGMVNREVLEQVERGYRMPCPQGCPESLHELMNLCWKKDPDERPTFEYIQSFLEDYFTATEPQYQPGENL

Row | First screening IR (inhibition rate) | Compound
1 | 4% | Cc1ccc(-c2csc3ncn(CC(=O)NC(CN4CCOCC4)c4ccccc4)c(=O)c23)cc1 (stereo not shown) [Compound Z146890674]
2 | -3% | CC(SCc1nc(N)nc(N(C)C)n1)C(=O)Nc1ccc(F)cc1 (stereo not shown) [Compound Z232651902]
3 | 13% | CC(C)NC(=O)N1CCCCCC1C1CCN(c2ncc(C(N)=O)cc2Cl)CC1 (stereo not shown) [Compound Z1168219830]
4 | 27% | COc1cccc(-c2nnc(SCC(=O)N3CCOCC3)n2-c2ccc(C)cc2)c1 [Compound Z19982748]
5 | 53% | Cc1nccn1-c1ccc(C(C)Nc2ncnc3nc(N)ccc23)cc1 (stereo not shown) [Compound Z1537172697]
6 | -4% | COC(=O)c1sc2ncc(/C=C3\C(=O)Nc4ccccc43)cc2c1C [Compound Z872035512]
7 | -3% | Cc1cc(-c2ccccc2)nc(SC(C)C(=O)Nc2sc3c(c2C(N)=O)CCC3)n1 (stereo not shown) [Compound Z114120486]
8 | 46% | COc1cc(NC(=O)c2ccccc2)c(OC)cc1NC(=O)COc1ccc(-c2nnco2)cc1 [Compound Z62746884]
9 | 9% | Nc1nc(NCC(=O)O)nc(NCC2CCCO2)c1[N+](=O)[O-] (stereo not shown) [Compound Z244561600]
10 | -10% | CC(C)N(CCNC(=O)CCc1nnc2n(Cc3ccc(F)cc3)c(=O)c3ccccc3n12)Cc1ccco1 [Compound Z1169067840]
11 | -1% | O=C(Nc1cccnc1)C1CCN(C(=O)c2ccc(C(F)(F)F)cc2)CC1 [Compound Z228734424]
12 | 0% | O=S1(=O)CCN(S(=O)(=O)Cl)CC1 [Compound Z432047124]
13 | -3% | O=S(=O)(c1ccccc1C(F)(F)F)N1CCN(Cc2ncc(-c3ccc(Cl)cc3)o2)CC1 [Compound Z105146244]
14 | 0% | Cc1c(C#N)c(NC(=O)CN2CCN(CC(=O)N3CCCCC3)CC2)n(-c2cccc(F)c2)c1C [Compound Z195846234]
15 | -11% | Cc1nn(CCC#N)c2nc(-c3ccccc3)cc(C(F)(F)F)c12 [Compound Z55426833]
16 | 62% | CCSc1ccc(C(=O)NCCc2nc(-c3ccco3)n[nH]2)cn1 [Compound Z1174718157]
17 | 8% | O=C(OCc1nc(-c2cccs2)no1)c1c(F)cccc1Cl [Compound Z51180604]
18 | 2% | CCc1ccc(S(=O)(=O)N(CC)C2CCS(=O)(=O)C2)cc1 (stereo not shown) [Compound Z65566827]
19 | 10% | COc1cc(/C=N/NC(=O)c2cccnc2)ccc1OC(=O)c1cccnc1 [Compound Z49575448]
20 | -8% | CC(C)C(=O)N1CCC(Nc2ncnc3c2cnn3CCC#N)CC1 [Compound Z990868196]
21 | 54% | Cc1cc(S(=O)(=O)Nc2cc(-c3ccncc3)nn2C)ccc1Br [Compound Z1270579889]
22 | 15% | O=C(CSc1nnc(-c2ccco2)o1)Nc1ccc2c(c1)CCC2 [Compound Z18650720]
23 | 3% | COc1ccccc1N1CCN(Cc2csc(NC(C)=O)n2)CC1 [Compound Z46164581]
24 | 0% | C(=C\c1ccccc1)/CN1CCN(c2ncnc3c2cnn3Cc2ccccc2)CC1 [Compound Z58287009]
25 | -7% | CCCn1c(C)cc(-c2csc(NC(=O)CCN3C(=O)COc4ccccc43)n2)c1C [Compound Z90896104]
26 | -4% | COc1cc(/C=C2/CC(C)Cc3c2nc2ccccc2c3C(=O)O)ccc1O (stereo not shown) [Compound Z46107807]

Row | First screening IR (inhibition rate) | Compound
27 | -8% | Cc1c(C(=O)N(C2CCC(C)CC2)C2CC2)cnn1-c1ccc(=O)[nH]n1 (stereo not shown) [Compound Z908597782]
28 | -3% | O=C1NCc2cccc(NS(=O)(=O)c3c(Cl)ccnc3Cl)c21 [Compound Z1556993367]
29 | 9% | Cn1c(O)c(N=NC(=O)c2ccc(COc3ccccc3-c3ccccc3)cc2)c2ccccc21 [Compound Z44853786]
30 | 17% | CCCn1nccc1NC(=O)CN(C)C(C)c1cccc(-c2ccncc2)c1 (stereo not shown) [Compound Z1587266149]
31 | 2% | CCOC(=O)Cn1ccc2cc(NC(=O)c3sc(-c4ccccc4)nc3C)ccc21 [Compound Z968524204]
32 | -3% | CC(=O)c1ccc(-c2ccc(C(=O)Nc3cc(F)ccc3C)o2)cc1 [Compound Z30903878]
33 | 35% | COc1ccc(C(N)=O)c(OCc2nc3ccccc3nc2C)c1 [Compound Z26325749]
34 | 43% | O=C(NCCc1c[nH]c2cc(F)ccc12)c1cnc(-c2ccccc2)nc1 [Compound Z960870544]
35 | 3% | CCc1cc(=O)[nH]c(-c2cccc(NC(=O)C3(N4CCOCC4)CCCC3)c2)n1 [Compound Z1203120735]
36 | -3% | CC1(C)CCCN(S(=O)(=O)CCCS(C)(=O)=O)CC1 [Compound Z1271277951]
37 | -5% | CN(C(=O)c1cccc(NC(=O)c2ccc(Br)o2)c1)c1ccc(C#N)cc1 [Compound Z1269414490]
38 | 4% | Cc1c(C(=O)NCCOc2ccccc2)[nH]c2c1C(=O)CCC2 [Compound Z51800409]
39 | 2% | CCS(=O)(=O)N1CCN(S(=O)(=O)C2CCS(=O)(=O)C2)CC1 (stereo not shown) [Compound Z805634984]
40 | -18% | O=C(Nc1cc(N2CCCS2(=O)=O)ccc1O)c1cccc(C(F)(F)F)c1 [Compound Z573928840]
41 | 0% | COc1cc(Br)c(S(=O)(=O)N(C)C(=O)C2CC2)cc1OC [Compound Z643690740]
42 | 21% | CC(NCc1ccnc(OC2CCOC2)c1)c1cccc(F)c1 (stereo not shown) [Compound Z1583197068]
43 | 3% | Cc1sc2ncnc(N/N=C/c3ccncc3)c2c1C [Compound Z49890729]
44 | -6% | C=CCn1c(COc2ccccc2F)nnc1SCCCn1c(=O)[nH]c2ccccc21 [Compound Z24188026]
45 | 6% | COc1cc(C(=O)Nc2ccc3c(c2)NC(=O)C(C)O3)cc2c1OC(C)C2 (stereo not shown) [Compound Z167364352]
46 | 9% | Cc1n[nH]c(C)c1C(C)C(=O)NCC(c1cccc(Cl)c1)N1CCCC1 (stereo not shown) [Compound Z1172045589]
47 | -15% | CC(=O)Nc1ccc(/C=C/C(=O)c2ccccc2-n2cccn2)cc1 [Compound Z839413590]
48 | 48% | Cc1cc(COC(=O)c2cc(-c3ccc4c(c3)OCCO4)nc3c2cnn3C(C)C)on1 [Compound Z227321660]
49 | -2% | Cn1c(=O)c2ccc(C(=O)NCc3cc(Cl)ccn3)nc2n(C)c1=O [Compound Z1574547064]
50 | 9% | Nc1c(S(=O)(=O)c2ccccc2)c2nc3ccccc3nc2n1CCNC(=O)c1ccc(Cl)cc1 [Compound Z56854331]
51 | -9% | CN1C/C(=C/c2cccc(Br)c2)c2nc3ccccc3c(C(=O)O)c2C1 [Compound Z46114695]
52 | -5% | O=C(Nc1n[nH]c(-c2ccc(F)cc2)n1)c1csc2c1CCCC2 [Compound Z119708890]
